The values that follow come from patent US20050032888A1 (priority 2001, published 2005).

One data set relates to skin of older probands. Description: Regular topical application of ascorbic acid to the skin of older probands (confocal microscopy in vivo). The text has this:
Status and changes of the microcapillary system and the rete peg pattern can be shown, followed, and quantified on probands quickly (in minutes) by means of modern techniques, such as confocal microscopy in vivo—i.e., free of injury, repeatedly as often as desired, and with dynamic responses to actual influences—both with respect to the density of the rete pegs or microcapillaries (number per surface unit) and with respect to their height, which makes it possible to estimate the size of the exchange surface.

The conditions of data set [1]: cited from earlier work.

Regarding `O=C1O[C@H]([C@@H](O)CO)C(O)=C1O` [ascorbic acid], in the data set on skin of older probands, the “density of rete pegs and microcapillaries” value is “reversibly increased to the extent of youthful skin”; the “elasticity parameters of the skin (formation of suction blisters)” value was “improvement”; the “moisture content and roughness of the horny layer” value is given as “improvement”. Further, the stability to heat entry in data set [1] (heat) is “sensitive to heat”. Further, the “stability in a pure, dry state” value in data set [1] (pure, dry state, light, air, heat) was “relatively resistant to light, air, and heat”. Besides, in data set [1] (traces of heavy metal, alkaline environment, air and atmospheric oxygen), the “stability in the presence of traces of heavy metal and in an alkaline environment” value is listed as “decomposes”.
